For series [1], the system named is tibia density. The experiment in a line: Bone density assay, OVX rat, thirty-five day dosing regimen (single photon absorptiometry of tibia). The format is in vivo, female Sprague Dawley rats. The note with it: OVX rats, oral, daily for 35 days, in 20% hydroxypropyl β-cyclodextrin. As for the experimental part:
Following the General Preparation procedure described above, the rats were treated daily for 35 days (6 rats per treatment group) and sacrificed by decapitation on the 36th day. The 35 day time period was sufficient to allow maximal effect on bone density, measured as described herein. At the time of sacrifice, the uteri were removed, dissected free of extraneous tissue, and the fluid contents were expelled before determination of wet weight in order to confirm estrogen deficiency associated with complete ovariectomy. […] The uteri were then placed in 10% neutral buffered formalin to allow for subsequent histological analysis.
The right tibias were excised and scanned at the distal metaphysis 1 mm from the patellar groove with single photon absorptiometry. Results of the densitometer measurements represent a calculation of bone density as a function of the bone mineral content and bone width.
In accordance with the procedures outlined above, compounds of the present invention and EE2 in 20% hydroxypropyl β-cyclodextrin were orally administered to test animals.

Series [2] concerns uterus. Put plainly: Uterine wet weight, post-menopausal (OVX) rat model, four day dosing regimen. The format is in vivo, female Sprague Dawley rats. The note with it: rat, in vivo, po, 0.1 mg/kg/day. Here is the method: In the examples illustrating the methods, a post-menopausal model was used in which effects of different treatments upon various biological parameters were determined, including serum cholesterol concentration, uterine weight, eosinophil peroxidase activity, MCF-7 cell proliferation, and bone density.
(§1) Animals were dosed daily for 4 days. […] A blood sample was collected by cardiac puncture.

The test system of series [3] is eosinophil peroxidase activity. The experiment in a line: Uterine eosinophil peroxidase (EPO) assay, OVX rat, four day dosing regimen.
Text: (§2) Seventy-five day old female Sprague Dawley rats (weight range of 200 to 225 g) were obtained from Charles River Laboratories (Portage, MI). The animals were either bilaterally ovariectomized (OVX) or exposed to a sham surgical procedure (Intact) at Charles River Laboratories, and then shipped after one week. Upon arrival, they were housed in metal hanging cages in groups of 3 or 4 per cage and had ad libitum access to food (calcium content approximately 0.5%) and water for one week. […] The photoperiod in the room was 12 hours light and 12 hours dark.
(§3) After a one week acclimation period (therefore, two weeks post-OVX), daily dosing with test compound was initiated. 17α-Ethynyl estradiol (EE2) (Sigma Chemical Co., St. Louis, MO), an orally available form of estrogen, or the test compound were given orally, unless otherwise stated, as a suspension in 1% carboxymethyl cellulose or dissolved in 20% cyclodextrin. Animals were dosed daily for 4 days. Following the dosing regimen, animals were weighed and anesthetized with a ketamine:xylazine (2:1, v:v) mixture. A blood sample was collected by cardiac puncture. The animals were then sacrificed by asphyxiation with CO2, the uterus was removed through a midline incision, and a wet uterine weight was determined.
(§4) Uteri were kept at 4° C until time of enzymatic analysis. The uteri were then homogenized in 50 volumes of 50 mM Tris buffer (pH - 8.0) containing 0.005% Triton X-100. Upon addition of 0.01% hydrogen peroxide and 10 mM o-phenylenediamine (final concentrations) in Tris buffer, increase in absorbance was monitored for one minute at 450 nm. […] The maximal velocity of a 15 second interval was determined over the initial, linear portion of the reaction curve.
The test system of series [4] is serum cholesterol. Put plainly: Serum cholesterol analysis, OVX rat, four day dosing regimen. The format is in vivo, female Sprague Dawley rats. As for the experimental part: as §1
Blood samples were allowed to clot at room temperature for 2 hours, and serum was obtained following centrifugation for 10 minutes at 3000 rpm. Serum cholesterol was determined using a Boehringer Mannheim Diagnostics high performance cholesterol assay. Briefly the cholesterol was oxidized to cholest-4-en-3-one and hydrogen peroxide. The hydrogen peroxide was then reacted with phenol and 4-aminophenazone in the presence of peroxidase to produce a p-quinone imine dye, which was read spectrophotemetrically at 500 nm. Cholesterol concentration was then calculated against a standard curve. The entire assay was automated using a Biomek Automated Workstation.

The subject of series [5] is eosinophil peroxidase activity. To be noted: rat, in vivo, po.
Text: as §2, §3, §4
The subject of series [6] is MCF-7 breast adenocarcinoma cells. The experiment in a line: MCF-7 proliferation assay (tritiated thymidine incorporation). The class given is cell-based. To be noted: Homo sapiens, MCF7; MCF-7 cells, 48 hours with drug, tritiated thymidine pulse 4 hours; read-out: ED50 (the source's name). Here is the method: MCF-7 breast adenocarcinoma cells (ATCC HTB 22) were maintained in MEM (minimal essential medium, phenol red-free, Sigma, St. Louis, MO) supplemented with 10% fetal bovine serum (FBS) (V/V), L-glutamine (2 mM), sodium pyruvate (1 mM), HEPES {(N-[2-hydroxyethyl]piperazine-N'-[2-ethanesulfonic acid]10 mM}, non-essential amino acids and bovine insulin (1 µg/ml) (maintenance medium). Ten days prior to assay, MCF-7 cells were switched to maintenance medium supplemented with 10% dextrancoated charcoal stripped fetal bovine serum (DCC-FBS) assay medium) in place of 10% FBS to deplete internal stores of steroids. MCF-7 cells were removed from maintenance flasks using cell dissociation medium (Ca++/Mg++ free HBSS (phenol red-free) supplemented with 10 mM HEPES and 2 mM EDTA). Cells were washed twice with assay medium and adjusted to 80,000 cells/ml. […] Serial dilutions of drugs or DMSO as a diluent control were prepared in assay medium and […] to triplicate microcultures followed by 50 ml assay medium for a final volume of […]. After an additional 48 hours at 37° C in a 5% CO2 humidified incubator, microcultures were pulsed with tritiated thymidine (1 uCi/well) for 4 hours. Cultures were terminated by freezing at -70° C for 24 hours followed by thawing and harvesting of microcultures. Samples were counted by liquid scintillation.

Like-named read-outs stand apart in the source and are kept apart here. Marks after values point to notes of the source that are not given here.

For `C#C[C@]1(O)CC[C@H]2[C@@H]3CCc4cc(O)ccc4[C@H]3CC[C@@]21C` [ethynyl estradiol, 17α-Ethynyl estradiol, reference compound], the “tibia density / bone loss (result in words)” value in series [1] is recorded as “prevented this loss”. Also, the “uterine weight (result in words)” value in series [2] is “marked stimulatory action on the uterus”. Further, the “Uterine EPO (Vmax)” value in series [3] (Dose 0.1 mg/kg, oral, daily for 4 days, OVX rats, * = significantly different than OVX control) is recorded as 120.0*. Moreover, in series [3] (ovariectomized rats, measured by assay of eosinophil peroxidase activity), the “eosinophil infiltration into the uterus (result in words)” value is “substantial, expected increase in eosinophil infiltration”. In series [4] (Rattus norvegicus, 96 h, Dose 0.1 mg/kg, oral, daily for 4 days, OVX rats, * = significantly different than OVX control, read-out: Serum Cholesterol (% dec. OVX)), the inhibition in vivo at 0.1 mg/kg came to 89.6%. Besides, in series [4] (compared to ovariectomized control animals, four day dosing, EE2 orally at 0.1 mg/Kg/day), the “serum cholesterol (result in words)” value is on record as “caused a decrease in serum cholesterol”.

As to `CC(C)(C)C(=O)N1CCCCC1COc1ccc(C(=O)c2c(-c3ccc(O)cc3)sc3cc(O)ccc23)cc1` (stereo not shown) [Compound 22], the results for the “Uterine EPO (Vmax)” value in series [5] (0.1 mg/kg), in series [5] (1 mg/kg) and in series [5] (10 mg/kg) were 3.5, 20.0 and 69.5*, respectively. Besides, the EC50 in series [6] came out at 0.01 nM.
